Earlier results on one compound are cited in publication PMC3085280 (Tetrahedron, 2009).

SMILES strings stand for the structures.

In the data set the test system is κ-opioid.

Consider `COC(=O)[C@@H]1C[C@H](OC(C)=O)C(=O)[C@H]2[C@@]1(C)CC[C@H]1C(=O)O[C@H](c3ccoc3)C[C@]21C` [Compound 1, Salvinorin A], for which the κ-opioid agonist activity entry was “potent and selective κ-opioid agonist”.
